In patent US10385024B2, “Compounds and methods for inhibiting NHE-mediated antiport in the treatment of disorders associated with fluid retention or salt overload and gastrointestinal tract disorders” (Ardelyx, Inc., priority 2012, dated 2019):

Key:
[1] = human absorption data, from Ertl et al., J. Med. Chem., 2000; cited from earlier work
Rat NHE-3 [2] = molecular target: T1, Rat NHE-3 (Rattus norvegicus, UniProt P26433); test: Cell-based assay of NHE-3 activity (rat NHE-3 prompt inhibition); details: OK cells with rat NHE-3 gene, compound present during pH recovery; for IC50: read-out: Rat NHE3 pIC50 (prompt) (converted)
T1 construct: expressed in transfected cells; host or cells: Opossum kidney (OK) cells (ATCC), transfected by electroporation
T1 sequence (P26433 29-831): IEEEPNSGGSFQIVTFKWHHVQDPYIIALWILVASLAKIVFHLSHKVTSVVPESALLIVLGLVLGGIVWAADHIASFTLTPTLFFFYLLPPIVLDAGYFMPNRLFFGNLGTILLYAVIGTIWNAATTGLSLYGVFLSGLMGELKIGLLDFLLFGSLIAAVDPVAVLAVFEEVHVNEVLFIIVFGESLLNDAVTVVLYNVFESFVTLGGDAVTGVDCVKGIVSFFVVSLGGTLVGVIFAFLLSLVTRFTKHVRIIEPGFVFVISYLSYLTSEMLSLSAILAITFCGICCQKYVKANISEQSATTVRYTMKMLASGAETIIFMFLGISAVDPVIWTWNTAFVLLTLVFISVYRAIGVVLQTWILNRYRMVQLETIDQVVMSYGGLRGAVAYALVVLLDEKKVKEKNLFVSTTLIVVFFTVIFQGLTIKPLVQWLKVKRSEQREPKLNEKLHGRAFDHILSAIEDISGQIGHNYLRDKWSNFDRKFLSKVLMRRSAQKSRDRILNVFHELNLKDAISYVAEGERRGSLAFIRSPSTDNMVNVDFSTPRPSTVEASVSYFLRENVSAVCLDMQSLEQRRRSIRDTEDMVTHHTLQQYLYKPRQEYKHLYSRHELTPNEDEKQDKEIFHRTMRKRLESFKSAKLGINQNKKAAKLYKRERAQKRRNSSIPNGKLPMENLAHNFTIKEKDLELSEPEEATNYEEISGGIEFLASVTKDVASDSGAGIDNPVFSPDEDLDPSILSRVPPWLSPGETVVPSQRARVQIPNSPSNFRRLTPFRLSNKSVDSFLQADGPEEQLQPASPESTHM
Method in brief: (§1)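 Opossum kidney cells electroporated with rat or human NHE-3, loaded with 5 μM BCECF-AM in NH4Cl-HEPES pH 7.4 for 30 min at RT, then acidified 10 min in Na+-free choline HEPES. Na+-dependent pH recovery rates from BCECF fluorescence, averaged over ≥2 replicates, gave pIC50.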

[3] = Pharmacokinetic evaluation in bile; assay type: in vivo, Sprague-Dawley rats; details: bile duct cannulated rats, oral gavage, nominal dose 30 mg/kg, bile collected over 24 h, mean of n=3
Protocol: Bile duct cannulated (BDC) Sprague-Dawley rats were dosed with test compounds by oral gavage and a single aliquot of bile was collected via cannula over the 24 h following dosing. Bile samples were treated with acetonitrile and precipitated proteins were removed by centrifugation. Some compounds required liquid-liquid extraction using MTBE. After centrifugation, samples were diluted as appropriate in mobile phase and analyzed by LC-MS/MS. The concentrations of compounds in bile were determined by interpolation from a standard calibration curve prepared in rat bile from untreated BDC rats. Accurate recovery of quality control samples was confirmed to accept each analytical run. Concentration in bile is reported in nM and represents the mean result from n=3 rats.

Fecal recovery = assay type: in vivo, Sprague Dawley rats; details: male, Sprague-Dawley, faeces; rat, 1 mg/kg oral gavage, collection time 48 h
Protocol: Three male Sprague Dawley rats were administered 1 mg/kg test compound by oral gavage. Feces were collected from study animals from 0-48 or 0-72 hours after dosing, dried by lyophilization, and homogenized. Replicate aliquots of 40-60 mg each were subjected to extraction/protein precipitation with 7:1 acetonitrile:water and centrifuged. Supernatants were diluted 1:10 in 50:50 acetonitrile:water prior to analysis by LC-MS/MS. Compound concentrations, determined by interpolation from a standard calibration curve prepared in blank feces matrix, were converted to the percentage of dosed material recovered by taking into account the total collected fecal matter. The percent recovery for each rat was reported as the mean of the calculations from replicate samples. The overall percent recovery (Fecal Recovery [%]) was reported as the mean percent recovery from three rats. Accurate quality control sample recoveries were confirmed in each run, and extraction efficiency was periodically verified.

Rat NHE-3 [4] = molecular target: T1, Rat NHE-3; test: Cell-based assay of NHE-3 activity (persistent inhibition, after washout); details: OK cells with rat NHE-3 gene, 60 min incubation, recovery initiated 40 min after compound washout; for IC50: read-out: Rat NHE3 pIC50 (persistent) (converted)
Method in brief: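 OK cells transiently expressing rat NHE-3 were exposed to 0-30 μM compound in NaCl-HEPES pH 7.4 for 60 min, then washed free of drug before NH4Cl/BCECF-AM loading and acid-loading in Na+-free choline buffer. Na+-dependent pH recovery rates (mean of ≥2 replicates) gave pIC50.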

human NHE-3 = molecular target: T2, human NHE-3 (Homo sapiens, UniProt P48764); test: Cell-based assay of NHE-3 activity (human NHE3 inhibition assay); details: OK cells with human NHE-3 gene, BCECF pH dye, 0-30 μM test compound; for IC50: read-out: Human NHE3 pIC50 (converted)
T2 construct: expressed in transfected cells; host or cells: Opossum kidney (OK) cells (ATCC), transfected by electroporation
T2 sequence (P48764 26-834): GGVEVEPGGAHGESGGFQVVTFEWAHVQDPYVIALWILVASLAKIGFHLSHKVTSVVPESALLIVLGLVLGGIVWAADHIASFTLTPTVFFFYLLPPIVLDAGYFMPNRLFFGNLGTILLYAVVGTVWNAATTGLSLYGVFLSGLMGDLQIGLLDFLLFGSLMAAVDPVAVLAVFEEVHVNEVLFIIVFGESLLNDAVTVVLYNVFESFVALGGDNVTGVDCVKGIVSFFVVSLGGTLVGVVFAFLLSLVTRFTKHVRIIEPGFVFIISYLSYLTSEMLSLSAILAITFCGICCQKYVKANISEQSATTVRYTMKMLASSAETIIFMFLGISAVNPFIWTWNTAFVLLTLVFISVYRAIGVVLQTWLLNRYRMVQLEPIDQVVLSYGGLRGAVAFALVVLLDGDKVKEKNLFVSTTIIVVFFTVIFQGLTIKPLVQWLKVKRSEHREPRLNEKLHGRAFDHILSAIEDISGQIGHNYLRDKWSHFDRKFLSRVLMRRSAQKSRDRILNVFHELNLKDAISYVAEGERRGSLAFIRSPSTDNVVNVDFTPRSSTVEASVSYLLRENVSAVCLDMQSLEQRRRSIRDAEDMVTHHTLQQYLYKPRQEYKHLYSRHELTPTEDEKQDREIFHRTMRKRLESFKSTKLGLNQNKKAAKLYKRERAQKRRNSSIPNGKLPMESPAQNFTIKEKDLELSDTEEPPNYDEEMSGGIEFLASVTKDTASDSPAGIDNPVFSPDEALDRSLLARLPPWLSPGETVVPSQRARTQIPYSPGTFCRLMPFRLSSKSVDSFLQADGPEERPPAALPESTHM
Method in brief: as §1

Plasma PK = assay type: in vivo, Sprague-Dawley rats; details: Sprague-Dawley; rat plasma, oral gavage, nominal dose 30 mg/kg, mean of n=3, sampling 0.5-4 h
Protocol: Sprague-Dawley rats (n=3) were dosed with test compounds by oral gavage. Blood was collected at 0.5, 1, 2 and 4 h via retro-orbital bleeds and processed to plasma using K2EDTA as an anticoagulant. Plasma samples were treated with acetonitrile containing an internal standard and precipitated proteins were removed by centrifugation. Supernatants were analyzed by LC-MS/MS and compound concentrations were determined by interpolation from a calibration curve prepared in plasma. Accurate recovery of quality control samples were confirmed to accept each analytical run.

[5] = system: absorption of sodium from the intestinal lumen; test: Inhibition of intestinal sodium absorption (urinary sodium and fecal form); assay type: in vivo, Sprague-Dawley rats; details: rat
Method in brief: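 Sprague-Dawley rats (8 weeks, n=6) dosed by oral gavage with compound or water vehicle (10 mL/kg) in late afternoon, then housed in metabolic cages. Over 16 h, urinary sodium measured by ion chromatography and expressed as % of vehicle mean; fecal form scored 1–5, averaged from two observations.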

SMILES: OC[C@H]1O[C@@H](O[C@@H]2[C@@H](CO)OC(O)(CO)[C@H]2O)[C@H](O)[C@@H](O)[C@H]1O (mixture of isomers) [lactulose]
- % FA [1]: 0.6%

SMILES: CN1Cc2c(Cl)cc(Cl)cc2[C@H](c2cccc(S(=O)(=O)NCCOCCOCCNC(=O)NCCC(N)(CCNC(=O)NCCOCCOCCNS(=O)(=O)c3cccc([C@@H]4CN(C)Cc5c(Cl)cc(Cl)cc54)c3)CCNC(=O)NCCOCCOCCNS(=O)(=O)c3cccc([C@@H]4CN(C)Cc5c(Cl)cc(Cl)cc54)c3)c2)C1 [Example 46, (S)—N,N′-(14-amino-14-(13-(3-((S)-6,8-dichloro-2-methyl-1,2,3,4-tetrahydroisoquinolin-4-yl)phenylsulfonamido)-4-oxo-8,11-dioxa-3,5-diazatridecyl)-10,18-dioxo-3,6,22,25-tetraoxa-9,11,17,19-tetraazaheptacosane-1,27-diyl)bis(3-((S)-6,8-dichloro-2-methyl-1,2,3,4-tetrahydroisoquinolin-4-yl)benzenesulfonamide)]
- IC50 (Rat NHE-3 [2]): < 100 nM
- Concentration in Bile [3]: 3 nM
- dose excreted (Fecal recovery): 75.8%
- IC50 (Rat NHE-3 [4]): < 100 nM
- IC50 (human NHE-3): < 100 nM

SMILES: CN1Cc2c(Cl)cc(Cl)cc2[C@H](c2cccc(S(=O)(=O)NCCOCCOCCOCCNC(=O)NCCN(CCNC(=O)NCCOCCOCCOCCNS(=O)(=O)c3cccc([C@@H]4CN(C)Cc5c(Cl)cc(Cl)cc54)c3)CCNC(=O)NCCOCCOCCOCCNS(=O)(=O)c3cccc([C@@H]4CN(C)Cc5c(Cl)cc(Cl)cc54)c3)c2)C1 [Example 52]
- Rat NHE3 pIC50 (prompt) (Rat NHE-3 [2]): B (B NHE3 pIC50 5-7)
- AUC (Plasma PK): < 19 ng·h/mL
- Cmax (Plasma PK): < 5 ng/mL
- Rat NHE3 pIC50 (persistent) (Rat NHE-3 [4]): C (C NHE3 pIC50 > 7)
- Human NHE3 pIC50 (human NHE-3): C (C NHE3 pIC50 > 7)

SMILES: CC(O)C(CCC(=O)NCCOCCOCCNS(=O)(=O)c1cccc([C@@H]2CN(C)Cc3c(Cl)cc(Cl)cc32)c1)(CCC(=O)NCCOCCOCCNS(=O)(=O)c1cccc([C@@H]2CN(C)Cc3c(Cl)cc(Cl)cc32)c1)CCC(=O)NCCOCCOCCNS(=O)(=O)c1cccc([C@@H]2CN(C)Cc3c(Cl)cc(Cl)cc32)c1 (stereo partly drawn) [Example 73, N1,N7-bis(2-(2-(2-(3-((S)-6,8-dichloro-2-methyl-1,2,3,4-tetrahydroisoquinolin-4-yl)phenylsulfonamido)ethoxy)ethoxy)ethyl)-4-(3-(2-(2-(2-(3-((S)-6,8-dichloro-2-methyl-1,2,3,4-tetrahydroisoquinolin-4-yl)phenylsulfonamido)ethoxy)ethoxy)ethylamino)-3-oxopropyl)-4-(1-hydroxyethyl)heptanediamide]
- IC50 (Rat NHE-3 [2]): < 100 nM
- FFS ([5]; fecal form score, scale 1 (normal pellet) to 5 (liquid fecal streams), group average, 3 mg/kg oral, 16 h post-dose, vehicle = 1): 2
- response vs control in vivo at 3 mg/kg ([5]; 3 mg/kg oral gavage, urine 16 h post-dose, asterisks = significance vs vehicle (*P<0.05, **P<0.01, ***P<0.001), read-out: uNa (% of vehicle)): 35 to 75%
- IC50 (Rat NHE-3 [4]): < 100 nM
- IC50 (human NHE-3): < 100 nM

SMILES: C=CCc1ccccc1OCC(O)CNC(C)C (stereo not shown) [alprenolol]
- % FA [1]: 96%

SMILES: O=C(O)P(=O)(O)O [foscarnet]
- % FA [1]: 17%

SMILES: OC[C@@H](O)[C@@H](O)[C@H](O)[C@H](O)CO [mannitol]
- % FA [1]: 26%

SMILES: Cc1ccccc1N1C(=O)c2cc(S(N)(=O)=O)c(Cl)cc2NC1C (stereo not shown) [metolazone]
- % FA [1]: 64%

SMILES: O=C(O)c1cc(/N=N/c2ccc(O)c(C(=O)O)c2)ccc1O [olsalazine]
- % FA [1]: 2.3%

SMILES: C=CCOc1ccccc1OCC(O)CNC(C)C (stereo not shown) [oxprenolol]
- % FA [1]: 97%

SMILES: CC(C)NCC(O)COc1cccc2[nH]ccc12 (stereo not shown) [pindolol]
- % FA [1]: 92%

SMILES: CC(=O)Nc1ccc(OCC(O)CNC(C)C)cc1 (stereo not shown) [practolol]
- % FA [1]: 95%

SMILES: OC[C@H]1O[C@H](OC[C@H]2O[C@H](O[C@]3(CO)O[C@H](CO)[C@@H](O)[C@@H]3O)[C@H](O)[C@@H](O)[C@@H]2O)[C@H](O)[C@@H](O)[C@H]1O [raffinose]
- % FA [1]: 0.3%

SMILES: O=C(O)c1cc(/N=N/c2ccc(S(=O)(=O)Nc3ccccn3)cc2)ccc1O [sulfasalazine]
- % FA [1]: 12%

SMILES: CCN1CCCC1CNC(=O)c1cc(S(N)(=O)=O)ccc1OC (stereo not shown) [sulpiride]
- % FA [1]: 36%

SMILES: NC[C@H]1CC[C@H](C(=O)O)CC1 [tranexamic acid]
- % FA [1]: 55%
